Source: US5639783A, “Ketone derivatives” (Mitsubishi Chemical Corporation, priority 1991, dated 1997)

Legend:
papain = target: T1, papain (Carica papaya, UniProt P00784); test: Thiol protease inhibitory activity, papain (P-3125, Sigma); assay type: biochemical
T1 sequence (P00784 134-345): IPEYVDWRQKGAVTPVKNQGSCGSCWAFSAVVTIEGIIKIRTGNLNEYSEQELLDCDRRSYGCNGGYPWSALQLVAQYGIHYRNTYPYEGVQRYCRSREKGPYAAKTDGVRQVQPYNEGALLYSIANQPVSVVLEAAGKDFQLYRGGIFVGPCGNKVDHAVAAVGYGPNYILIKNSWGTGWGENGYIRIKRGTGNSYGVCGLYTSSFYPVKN
Summary of the method: (§1)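 Papain and bovine cathepsin B assayed by a published method; cathepsin L purified from rat kidney and assayed in the same manner as cathepsin B. m-Calpain purified from rat brain and assayed by a separate published procedure.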

cathepsin B = target: T2, cathepsin B (Bos taurus, UniProt P07688); test: Thiol protease inhibitory activity, cathepsin B (C-6286, Sigma); assay type: biochemical; settings: Table 3
T2 construct: purchased Sigma C-6286
Summary of the method: as §1

cathepsin L = target: T3, cathepsin L (Rattus norvegicus, UniProt P07154); test: Thiol protease inhibitory activity, cathepsin L purified from rat kidney; assay type: biochemical; settings: Table 3
T3 construct: Cathepsin L was purified from rat kidney; from tissue; host or cells: rat kidney
Summary of the method: as §1

m-calpain = target: T4, m-calpain (Rattus norvegicus, UniProt Q07009); test: Thiol protease inhibitory activity, m-calpain purified from rat brain; assay type: biochemical; settings: Table 3
T4 construct: m-calpain was purified from rat brain; from tissue; host or cells: rat brain
T4 sequence (Q07009 20-700 limits assumed): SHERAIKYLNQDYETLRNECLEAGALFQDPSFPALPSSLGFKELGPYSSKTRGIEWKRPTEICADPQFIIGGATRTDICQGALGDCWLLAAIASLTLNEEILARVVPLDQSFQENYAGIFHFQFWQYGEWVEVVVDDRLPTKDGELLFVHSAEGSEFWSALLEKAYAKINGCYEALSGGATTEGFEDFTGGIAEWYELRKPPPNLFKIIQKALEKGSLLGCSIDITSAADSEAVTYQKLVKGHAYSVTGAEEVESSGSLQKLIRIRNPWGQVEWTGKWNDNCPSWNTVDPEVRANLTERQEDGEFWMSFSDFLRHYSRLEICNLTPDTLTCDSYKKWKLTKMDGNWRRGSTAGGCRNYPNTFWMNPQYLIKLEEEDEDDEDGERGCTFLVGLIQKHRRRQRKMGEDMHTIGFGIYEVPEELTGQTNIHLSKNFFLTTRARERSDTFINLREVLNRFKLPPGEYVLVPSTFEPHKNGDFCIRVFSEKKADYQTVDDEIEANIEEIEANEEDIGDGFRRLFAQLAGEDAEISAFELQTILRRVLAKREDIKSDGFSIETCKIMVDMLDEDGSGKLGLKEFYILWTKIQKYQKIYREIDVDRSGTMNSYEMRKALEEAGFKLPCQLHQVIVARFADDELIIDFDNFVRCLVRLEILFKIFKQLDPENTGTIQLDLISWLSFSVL
T4 sequence (Q64537 1-270 partner): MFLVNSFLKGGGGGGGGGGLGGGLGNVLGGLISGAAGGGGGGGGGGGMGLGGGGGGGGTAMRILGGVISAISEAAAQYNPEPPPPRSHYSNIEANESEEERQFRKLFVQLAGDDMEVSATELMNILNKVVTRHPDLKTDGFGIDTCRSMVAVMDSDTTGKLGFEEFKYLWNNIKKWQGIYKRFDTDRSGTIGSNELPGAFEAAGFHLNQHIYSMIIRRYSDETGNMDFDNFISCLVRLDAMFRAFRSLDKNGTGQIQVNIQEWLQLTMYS
Summary of the method: as §1

in vivo = settings: rat, po
Procedure: The LD50 value of the compound prepared in Example 94 was: >2,000 mg/kg.

[1] = test system: microtubule-associated protein; settings: Brain Research, 526, p. 177 (1990); cited from earlier work
[2] = test system: axon in brain trauma models of rat; settings: Journal of Neurosurgery, 65, p. 92 (1986); cited from earlier work
[3] = test system: cardiac infarction animal models; settings: Arzneimittel Forschung/Drug Research, 36 (1986); cited from earlier work
[4] = test system: experimental muscular dystrophy hamster; settings: Journal of Pharmacobio dynamics, 10, 678 (1987); cited from earlier work
aggregation of platelet = settings: Thrombosis Research, 57, p. 847 (1990); cited from earlier work

T3 sequence (P07154 114-334): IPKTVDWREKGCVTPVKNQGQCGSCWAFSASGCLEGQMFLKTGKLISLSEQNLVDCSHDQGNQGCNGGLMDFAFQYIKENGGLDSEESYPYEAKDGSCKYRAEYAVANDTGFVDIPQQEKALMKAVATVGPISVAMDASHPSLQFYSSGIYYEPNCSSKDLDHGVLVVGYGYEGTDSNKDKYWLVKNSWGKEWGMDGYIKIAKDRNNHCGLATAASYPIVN

**Q.** For `CCCC[C@H](NC(=O)[C@H](CC(C)C)NC(=O)c1cc(=O)c2ccccc2o1)C(=O)CSCc1ccco1` [94 (No. 188), (s)-1-furfurylthio-3-[(s)-4-methyl-2-(4-oxo-4H-1-benzopyranylcarbonylamino)valerylamino]-2-heptanone], which IC50 (papain) is on record?
**A.** Its IC50 is 770 nM.

**Q.** What about the IC50 (cathepsin B) of the same compound?
**A.** The IC50 was 1100 nM.

**Q.** What about the IC50 (cathepsin L) of the same compound?
**A.** Its IC50 is 24 nM.

**Q.** What about the IC50 (m-calpain) of the same compound?
**A.** The IC50 was 9200 nM.

**Q.** And the LD50 at 168 h (in vivo)?
**A.** Its LD50 at 168 h is over 2000 mg/kg.

**Q.** Which “degradation of microtubule-associated protein after brain ischemia” value [1] does the source give for `CC(C)CCNC(=O)[C@H](CC(C)C)NC(=O)[C@H]1O[C@@H]1C(=O)O` [E-64-C] here?
**A.** The value was “inhibits the degradation of microtubule-associated protein after the brain ischemia”.

**Q.** With `CC(=O)N[C@@H](CC(C)C)C(=O)N[C@@H](CC(C)C)C(=O)N[C@H](C=O)CCCNC(=N)N` [leupeptin] as the compound, how does the “protection of axon in brain trauma models” value [2] read?
**A.** Its value is “can protect axon”.

**Q.** With `CCOC(=O)[C@@H]1O[C@H]1C(=O)NC(CC(C)C)C(=O)N1CCN(Cc2ccc(OC)c(OC)c2OC)CC1.CCOC(=O)[C@@H]1O[C@H]1C(=O)NC(CC(C)C)C(=O)N1CCN(Cc2ccc(OC)c(OC)c2OC)CC1.O=S(=O)(O)O` (stereo partly shown) [NCO-700] as the compound, how does the “effect on cardiac infarction” value [3] read?
**A.** The value was “effective on cardiac infarction”.

**Q.** For `CCOC(=O)[C@H]1O[C@@H]1C(=O)N[C@@H](CC(C)C)C(=O)NCCC(C)C` [E-64-d], which “effect in experimental muscular dystrophy hamster” value [4] is on record?
**A.** The value was “life-prolonging effect”.

**Q.** What about the “aggregation of platelet caused by thrombin” value (aggregation of platelet) of the same compound?
**A.** The value was “suppressed aggregation of platelet caused by thrombin”.
